Source: ChEMBL document CHEMBL3301361, “Experimental in vitro DMPK and physicochemical data on a set of publicly disclosed compounds”
Values after ≈ are worked out from the molar mass of the structure shown.

Assays:
physchem [1] = assay: physchem
physchem [2] = conditions: octan-1-ol/water
in vitro [3] = conditions: human, plasma
in vitro [4] = conditions: SD, HW or BN, rat, plasma
in vitro [5] = conditions: Beagle, dog, plasma
in vitro [6] = conditions: human
in vitro [7] = conditions: human, hepatocytes
physchem [8] = assay: physchem; remark: listed apart in the source
in vitro [9] = conditions: hepatocytes
physchem [10] = conditions: pH 7.4 buffer

Cn1c(=O)c2nn[nH]c2n(C)c1=O
pKa (physchem [1]): 4.4

CCCc1nc2c(C)cc(-c3nc4ccccc4n3C)cc2n1Cc1ccc(-c2ccccc2C(=O)O)cc1
logD (physchem [2]; pH 7.4, LogD7.4): 2.21 | fraction unbound at 5 h (in vitro [3]; PPB): 0.0077 | fraction unbound at 5 h (in vitro [4]): 0.0038 | fraction unbound at 5 h (in vitro [5]): 0.0175 | microsomal CLint (in vitro [6]; liver microsomes): < 3 µL/min/mg | hepatocyte CLint (in vitro [7]): 3.98 µL/min/1e6 cells

COc1ccnc(NC2CCN(C(=O)c3ccc(C#N)cc3)CC2)c1
pKa (physchem [8]): 7.1 | logD (physchem [2]; pH 7.4, LogD7.4): 1.73 | fraction unbound at 5 h (in vitro [5]): 0.0532

CCCc1c2nccc(Cl)c2cc2c(=O)cc(C(=O)O)oc12
pKa (physchem [1]): 2.5

O=C(O)c1cc(=O)c2cc(Cl)ccc2o1
pKa (physchem [1]): < 2

COc1ccc2c(=O)cc(C(=O)O)oc2c1
pKa (physchem [1]): < 2

O=C(O)COc1ccc(Cl)cc1CN1CCN(S(=O)(=O)c2ccccc2)CC1
pKa (physchem [8]): 6.8 | logD (physchem [2]; pH 7.4, LogD7.4): 0.49 | fraction unbound at 5 h (in vitro [3]; PPB): 0.0383 | fraction unbound at 5 h (in vitro [4]): 0.132 | fraction unbound at 5 h (in vitro [5]): 0.04

O=C(O)COc1ccc(Cl)cc1CN1CCN(S(=O)(=O)c2ccc(F)cc2)CC1
logD (physchem [2]; pH 7.4, LogD7.4): 0.99 | fraction unbound at 5 h (in vitro [3]; PPB): 0.0101 | fraction unbound at 5 h (in vitro [4]): 0.089 | fraction unbound at 5 h (in vitro [5]): 0.0768 | hepatocyte CLint (in vitro [9]): < 3 µL/min/1e6 cells | hepatocyte CLint (in vitro [7]): < 3 µL/min/1e6 cells

C[C@H]1CN(Cc2cc(Cl)ccc2OCC(=O)O)CCN1C(=O)Cc1ccc(Cl)cc1
fraction unbound at 5 h (in vitro [3]): 0.0187 | fraction unbound at 5 h (in vitro [4]): 0.0383 | fraction unbound at 5 h (in vitro [5]): 0.0262 | microsomal CLint (in vitro [6]; liver microsomes): < 3 µL/min/mg | hepatocyte CLint (in vitro [9]): < 3 µL/min/1e6 cells | hepatocyte CLint (in vitro [7]): < 3 µL/min/1e6 cells

N#Cc1cccc(-c2cc(C(F)(F)F)ccc2OCC(=O)O)c1
logD (physchem [2]; pH 7.4, LogD7.4): 0.05 | fraction unbound at 5 h (in vitro [3]; PPB): 0.0139 | fraction unbound at 5 h (in vitro [4]): 0.035 | fraction unbound at 5 h (in vitro [5]): 0.0358 | microsomal CLint (in vitro [6]; liver microsomes): < 3 µL/min/mg | hepatocyte CLint (in vitro [9]): < 3 µL/min/1e6 cells | hepatocyte CLint (in vitro [7]): < 3 µL/min/1e6 cells

CCS(=O)(=O)c1ccc(-c2cc(C(F)(F)F)ccc2OC(C)(C)C(=O)O)c(C)c1
pKa (physchem [1]): 3.2

N#Cc1ccc(C(F)(F)F)nc1O[C@H](CCN)c1ccno1
pKa (physchem [8]): 9.5 | logD (physchem [2]; pH 7.4, LogD7.4): -0.49 | fraction unbound at 5 h (in vitro [3]; PPB): 0.557 | fraction unbound at 5 h (in vitro [5]): 0.535

O=C(O)/C=C(/c1ccccc1)C(F)(F)F
pKa (physchem [1]): 2.41

CCN(C(=O)c1cnn(-c2ccccc2)c1NS(=O)(=O)c1ccc(-c2cnco2)cc1)C1CCCCC1
logD (physchem [2]; pH 7.4, LogD7.4): 1.46 | solubility thermodynamic (physchem [10]): 204 µM (≈ 106 µg/mL) | fraction unbound at 5 h (in vitro [3]; PPB): 0.013 | fraction unbound at 5 h (in vitro [4]): 0.0057 | fraction unbound at 5 h (in vitro [5]): 0.0025 | microsomal CLint (in vitro [6]; liver microsomes): 137 µL/min/mg | hepatocyte CLint (in vitro [9]): 35 µL/min/1e6 cells | hepatocyte CLint (in vitro [7]): 9.5 µL/min/1e6 cells

CCCc1nn(C)c2c(=O)[nH]c(-c3cc(S(=O)(=O)N4CCN(C)CC4)ccc3OCC)nc12
logD (physchem [2]; pH 7.4, LogD7.4): 2.8 | fraction unbound at 5 h (in vitro [3]; PPB): 0.0447 | fraction unbound at 5 h (in vitro [4]): 0.0988 | fraction unbound at 5 h (in vitro [5]): 0.176 | microsomal CLint (in vitro [6]; liver microsomes): 132 µL/min/mg | hepatocyte CLint (in vitro [9]): > 150 µL/min/1e6 cells | hepatocyte CLint (in vitro [7]): 16.6 µL/min/1e6 cells

N#Cc1cccc(S(=O)(=O)NC[C@@H](O)CN2CCC(Oc3ccc(Cl)c(Cl)c3)CC2)c1
pKa (physchem [1]): 10.1

O=C(NCC12CC3CC(CC(C3)C1)C2)c1cc(CN2CCNCC2)ccc1Cl
pKa (physchem [8]): 8.85 | logD (physchem [2]; pH 7.4, LogD7.4): 1.84 | solubility thermodynamic (physchem [10]): 74.1 µM (≈ 29.8 µg/mL) | fraction unbound at 5 h (in vitro [3]; PPB): 0.0872 | fraction unbound at 5 h (in vitro [4]): 0.062 | fraction unbound at 5 h (in vitro [5]): 0.157 | microsomal CLint (in vitro [6]; microsomes): 18 µL/min/mg | hepatocyte CLint (in vitro [9]): 4 µL/min/1e6 cells | hepatocyte CLint (in vitro [7]): 4.46 µL/min/1e6 cells

Cc1nnc(C(=O)NC(C)(C)c2nc(C(=O)NCc3ccc(F)cc3)c(O)c(=O)n2C)o1
pKa (physchem [1]): 3.97

C[C@H](CO)Nc1[nH]c(SCc2ccccc2F)nc2nc(=O)sc1-2
logD (physchem [2]; pH 7.4, LogD7.4): 3 | solubility thermodynamic (physchem [10]): 8.1 µM (≈ 2.97 µg/mL) | fraction unbound at 5 h (in vitro [5]): 0.0171 | microsomal CLint (in vitro [6]; liver microsomes): 3 µL/min/mg | hepatocyte CLint (in vitro [9]): 28 µL/min/1e6 cells | hepatocyte CLint (in vitro [7]): 30.1 µL/min/1e6 cells

CCOC(=O)N1CCC(c2cc(=O)n(-c3ccccc3)[nH]2)CC1
pKa (physchem [1]): 6.8

O=C(O)c1coc2ccccc2c1=O
pKa (physchem [1]): 4

CC1=NN(C(=O)CCS)C(C(=O)O)S1 (configuration not stated)
pKa (physchem [1]): 2.4

CCN(CC)CCN1C(=O)[C@@](O)(c2ccccc2Cl)c2c1cc(C(N)=O)cc2C(F)(F)F
logD (physchem [2]; pH 7.4): 2.4 | fraction unbound at 5 h (in vitro [3]): 0.289 | fraction unbound at 5 h (in vitro [4]): 0.212 | fraction unbound at 5 h (in vitro [5]): 0.19 | microsomal CLint (in vitro [6]; microsomes): 93.3 µL/min/mg | hepatocyte CLint (in vitro [9]): 56.2 µL/min/1e6 cells | hepatocyte CLint (in vitro [7]): 11.5 µL/min/1e6 cells

Cc1n[nH]c(C)c1Cc1sc2c(c1C(=O)N1C[C@H](O)CO1)c(=O)n(C)c(=O)n2CC(C)C
pKa (physchem [8]): 3.4 | logD (physchem [2]; pH 7.4, LogD7.4): 1.07 | fraction unbound at 5 h (in vitro [3]; PPB): 0.489 | fraction unbound at 5 h (in vitro [5]): 0.656 | microsomal CLint (in vitro [6]; liver microsomes): 4 µL/min/mg

O=C(NCC12CC3CC(CC(C3)C1)C2)c1cc(OC2CCNCC2)ccc1Cl
pKa (physchem [8]): 9 | logD (physchem [2]; pH 7.4, LogD7.4): 1.83 | fraction unbound at 5 h (in vitro [5]): 0.0768 | microsomal CLint (in vitro [6]; microsomes): 28 µL/min/mg

C[C@H](CO)Nc1nc(SCc2ccccc2)nc2[nH]c(=O)sc12
logD (physchem [2]; pH 7.4, LogD7.4): 2.86 | solubility thermodynamic (physchem [10]): 53.7 µM (≈ 18.7 µg/mL) | fraction unbound at 5 h (in vitro [3]; PPB): 0.0029 | fraction unbound at 5 h (in vitro [5]): 0.0219 | microsomal CLint (in vitro [6]; liver microsomes): 4 µL/min/mg | hepatocyte CLint (in vitro [9]): < 3 µL/min/1e6 cells | hepatocyte CLint (in vitro [7]): 19.4 µL/min/1e6 cells

O=C(NCC12CC3CC(CC(C3)C1)C2)c1cc(N2CCNCC2)ncc1Cl
pKa (physchem [8]): 8.5 | fraction unbound at 5 h (in vitro [5]): 0.0736 | microsomal CLint (in vitro [6]; liver microsomes): 10 µL/min/mg

N#Cc1sccc1NS(=O)(=O)c1ccc(Cl)cc1
pKa (physchem [1]): 5.1

CCCC(=O)Nc1ccc(OCC(O)CNC(C)C)c(C(C)=O)c1 (configuration not stated) [ACEBUTOLOL]
pKa (physchem [8]): 9.45 | fraction unbound at 5 h (in vitro [4]): 0.711 | fraction unbound at 5 h (in vitro [5]): 0.788

CC(C)NCC(O)COc1ccc(COCCOC(C)C)cc1 (configuration not stated) [BISOPROLOL]
pKa (physchem [8]): 9.87 | logD (physchem [2]; pH 7.4, LogD7.4): 0.1 | fraction unbound at 5 h (in vitro [4]): 0.768 | fraction unbound at 5 h (in vitro [5]): 0.743 | hepatocyte CLint (in vitro [9]): 25.1 µL/min/1e6 cells

CCC(=O)O[C@]1(C(=O)SCF)[C@H](C)C[C@H]2[C@@H]3C[C@H](F)C4=CC(=O)C=C[C@]4(C)[C@@]3(F)[C@@H](O)C[C@@]21C [FLUTICASONE PROPIONATE]
fraction unbound at 5 h (in vitro [3]; PPB): 0.0191 | fraction unbound at 5 h (in vitro [4]): 0.0153 | fraction unbound at 5 h (in vitro [5]): 0.0116 | hepatocyte CLint (in vitro [9]): 107 µL/min/1e6 cells | hepatocyte CLint (in vitro [7]): > 150 µL/min/1e6 cells

CC(C)(N)C(=O)N[C@H](COCc1ccccc1)C(=O)N1CCC2(CC1)CN(S(C)(=O)=O)c1ccccc12 [IBUTAMOREN]
logD (physchem [2]; pH 7.4, LogD7.4): 1.4 | fraction unbound at 5 h (in vitro [3]; PPB): 0.232 | fraction unbound at 5 h (in vitro [4]): 0.253 | fraction unbound at 5 h (in vitro [5]): 0.212 | hepatocyte CLint (in vitro [7]): 14.4 µL/min/1e6 cells

CCCCC1=NC2(CCCC2)C(=O)N1Cc1ccc(-c2ccccc2-c2nnn[nH]2)cc1 [IRBESARTAN]
solubility thermodynamic (physchem [10]): 891 µM (≈ 382 µg/mL) | fraction unbound at 5 h (in vitro [5]): 0.0146 | microsomal CLint (in vitro [6]; microsomes): 17.8 µL/min/mg | hepatocyte CLint (in vitro [9]): 9.01 µL/min/1e6 cells | hepatocyte CLint (in vitro [7]): 10.5 µL/min/1e6 cells

Cc1ncc2n1-c1ccc(Cl)cc1C(c1ccccc1F)=NC2 [MIDAZOLAM]
pKa (physchem [8]): 6.11 | solubility thermodynamic (physchem [10]): 72.4 µM (≈ 23.6 µg/mL) | fraction unbound at 5 h (in vitro [3]): 0.0175 | fraction unbound at 5 h (in vitro [4]): 0.0457 | fraction unbound at 5 h (in vitro [5]): 0.02 | hepatocyte CLint (in vitro [9]): 121 µL/min/1e6 cells | hepatocyte CLint (in vitro [7]): 32.4 µL/min/1e6 cells

CCNC(=O)C[C@@H]1N=C(c2ccc(Cl)cc2)c2cc(OC)ccc2-n2c(C)nnc21 [MOLIBRESIB]
pKa (physchem [8]): 2.1 | fraction unbound at 5 h (in vitro [3]): 0.24 | fraction unbound at 5 h (in vitro [4]): 0.314 | fraction unbound at 5 h (in vitro [5]): 0.324 | microsomal CLint (in vitro [6]; microsomes): 14.1 µL/min/mg | hepatocyte CLint (in vitro [9]): 10.2 µL/min/1e6 cells

COC(=O)C1=C(C)NC(C)=C(C(=O)OCCN(C)Cc2ccccc2)C1c1cccc([N+](=O)[O-])c1 (configuration not stated) [NICARDIPINE]
pKa (physchem [8]): 7.26 | solubility thermodynamic (physchem [10]): 7.4 µM (≈ 3.55 µg/mL) | fraction unbound at 5 h (in vitro [4]): 0.0039 | fraction unbound at 5 h (in vitro [5]): 0.004

CC[C@H](C)C(=O)O[C@H]1C[C@H](O)C=C2C=C[C@H](C)[C@H](CC[C@@H](O)C[C@@H](O)CC(=O)O)[C@H]21 [PRAVASTATIN]
logD (physchem [2]; pH 7.4, LogD7.4): -0.76 | fraction unbound at 5 h (in vitro [4]): 0.349 | fraction unbound at 5 h (in vitro [5]): 0.608 | microsomal CLint (in vitro [6]; microsomes): < 3 µL/min/mg | hepatocyte CLint (in vitro [9]): 27 µL/min/1e6 cells | hepatocyte CLint (in vitro [7]): < 3 µL/min/1e6 cells

CC(C)(C)NC(=O)c1ccc(Oc2cc(F)c(CC(=O)O)cc2Cl)c(NS(=O)(=O)c2ccc(C3CC3)cc2Cl)c1 [VIDUPIPRANT]
solubility thermodynamic (physchem [10]): 851 µM (≈ 519 µg/mL) | fraction unbound at 5 h (in vitro [3]; PPB): 0.0015 | fraction unbound at 5 h (in vitro [5]): 0.0039 | microsomal CLint (in vitro [6]; liver microsomes): < 3 µL/min/mg | hepatocyte CLint (in vitro [9]): 6 µL/min/1e6 cells | hepatocyte CLint (in vitro [7]): 6 µL/min/1e6 cells
